Assay results taken from article PMC3299889 (Analytical Biochemistry, 2012).

Columns and labels:
Assay type in all cases: biochemical
SARS-CoV 3CLpro = SARS-CoV 3CLpro (Severe acute respiratory syndrome coronavirus, UniProt P0C6X7)
HCV NS3/4A = HCV NS3/4A (Hepatitis C virus genotype 1a, UniProt P27958)
SARS-CoV PLpro = SARS-CoV PLpro (Severe acute respiratory syndrome coronavirus, UniProt P0C6X7)

HCV NS3/4A, sequence (P27958 1027-1657): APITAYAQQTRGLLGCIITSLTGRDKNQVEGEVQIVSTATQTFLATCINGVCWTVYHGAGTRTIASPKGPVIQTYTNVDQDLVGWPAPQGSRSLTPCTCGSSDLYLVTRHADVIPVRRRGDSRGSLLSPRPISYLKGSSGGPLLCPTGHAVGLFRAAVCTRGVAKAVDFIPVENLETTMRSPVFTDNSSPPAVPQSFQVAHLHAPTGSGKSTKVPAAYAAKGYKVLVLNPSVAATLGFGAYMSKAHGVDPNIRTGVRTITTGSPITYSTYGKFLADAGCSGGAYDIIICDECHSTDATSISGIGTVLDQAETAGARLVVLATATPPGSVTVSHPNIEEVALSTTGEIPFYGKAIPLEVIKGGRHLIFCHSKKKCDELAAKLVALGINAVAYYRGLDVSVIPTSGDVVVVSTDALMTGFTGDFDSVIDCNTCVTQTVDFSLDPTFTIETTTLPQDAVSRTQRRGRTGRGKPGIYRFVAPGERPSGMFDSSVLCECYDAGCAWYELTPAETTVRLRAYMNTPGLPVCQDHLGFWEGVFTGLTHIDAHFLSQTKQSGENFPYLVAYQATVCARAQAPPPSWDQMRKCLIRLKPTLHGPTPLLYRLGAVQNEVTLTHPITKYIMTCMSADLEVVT
HCV NS3/4A, sequence (P27958 1658-1711 partner limits assumed): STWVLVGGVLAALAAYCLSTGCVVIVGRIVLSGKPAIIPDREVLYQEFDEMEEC

| SMILES | Vmax (SARS-CoV 3CLpro) [RFU/10 min] | Vmax (HCV NS3/4A) [RFU/10 min] | change of enzyme efficiency (Kcat/KM) (HCV NS3/4A) [fold] | Vmax (SARS-CoV PLpro) [RFU/10 min] | increase of KM (SARS-CoV PLpro) [fold] | Kcat/KM ratio (SARS-CoV 3CLpro) | Km (SARS-CoV 3CLpro) [µM] | Kcat/KM ratio (HCV NS3/4A) | Kcat/KM ratio (SARS-CoV PLpro) | Km (HCV NS3/4A) [µM] | Km (SARS-CoV PLpro) [µM] |
| --- | --- | --- | --- | --- | --- | --- | --- | --- | --- | --- | --- |
| O[C@@H](CS)[C@@H](O)CS (racemic) [DTT, dithiothreitol] | 435 ± 12 | 181 ± 21 | 1.6 | 813 ± 36 | 4 | – | – | – | – | – | – |
| N[C@@H](CCC(=O)N[C@@H](CS)C(=O)NCC(=O)O)C(=O)O [GSH, reduced glutathione] | 516 ± 9 | 151 ± 8 | – | 449 ± 14 | 1.5 | 1.2 | 16.1 ± 0.8 | 1.5 | 1.0 | – | – |
| O=C(O)CCP(CCC(=O)O)CCC(=O)O [TCEP, tris(2-carboxyethyl)phosphine] | 472 ± 18 | 75 ± 15 | – | 441 ± 41 | 2.5 | – | – | 0.5 | – | – | – |
| OCCS [β-MCE, β-mercaptoethanol] | 453 ± 24 | 161 ± 8 | – | 438 ± 30 | – | 1.2 | 14.8 ± 1.2 | 1.4 | 1.2 | 2.5 ± 0.1 | 117 ± 7 |
